In ChEMBL document CHEMBL1144957, “Highly cytotoxic benzo[c]pyrido[2,3,4-kl]acridines” (Bioorg Med Chem Lett, 2003):

Legend:
Nucleic Acid = test: Binding to DNA as change in thermal denaturation temperature of poly(dAT)2 DNA; assay type: nucleic-acid assay
Calf thymus DNA [1] = test: Apparent calf thymus DNA-binding constant; assay type: nucleic-acid assay; conditions: Bos taurus
PC-3 = test: In vitro inhibitory concentration against human prostate carcinoma PC-3 cell line using MTT assay after incubation for 72 h; assay type: functional, cell-based; conditions: PC-3, 72 h
Calf thymus DNA [2] = test: Apparent Calf thymus DNA DNA-binding constant; assay type: nucleic-acid assay; conditions: Bos taurus

Row | SMILES | ΔTm (Nucleic Acid) [°C] | K app (Calf thymus DNA [1]) [M⁻¹] | IC50 (PC-3) [nM] | K app (Calf thymus DNA [2]) [M⁻¹]
1 | COc1cc2nc3c(c4c2c(c1OC)N(C(C)=O)CC4)CCc1cc(OCCN)ccc1-3 | 2.1 | 4200 | > 1000 | –
2 | COc1cc2nc3c(c4c2c(c1OC)N(C(C)=O)CC4)CCc1cc(OCCCN2CCN(C)CC2)ccc1-3 | 0.9 | – | 11.2 | 2800
3 | COc1cc2nc3c(c4c2c(c1OC)N(C(C)=O)CC4)CCc1cc(O)ccc1-3 | – | – | > 1000 | –
4 | COc1cc2nc3c(c4c2c(c1OC)NCC4)CCc1cc(OCCCN)ccc1-3 | 11.9 | 6.86e+06 | > 1000 | –
5 | COc1ccc2c(c1)-c1nc3cc(OC)c(OC)c4c3c(c1CC2)CCN4C(C)=O | – | – | > 1000 | –
6 | COc1cc2nc3c(c4c2c(c1OC)N(C(=O)CN1CCN(C)CC1)CC4)CCc1cc(OCCN)ccc1-3 | 11.9 | 4.51e+06 | > 1000 | –
7 | COc1ccc2c(c1)-c1nc3cc(OC)c(OC)c4c3c(c1CC2)CCN4C(=O)CN1CCN(C)CC1 | 0.9 | < 50000 | > 1000 | –
8 | COc1ccc2c(c1)-c1nc3cc(OC)c(OC)c4c3c(c1CC2)CCN4 | 0 | 2400 | > 1000 | –
9 | COc1cc2nc3c(c4c2c(c1OC)NCC4)CCc1cc(OCCCN2CCN(C)CC2)ccc1-3 | 7.5 | 4.98e+06 | 19.9 | –
10 | COc1cc2nc3c(c4c2c(c1OC)NCC4)CCc1cc(O)ccc1-3 | 1.1 | 1600 | > 1000 | –
11 | COc1cc2nc3c(c4c2c(c1OC)N(C(=O)CN1CCN(C)CC1)CC4)CCc1ccccc1-3 | 0 | < 50000 | > 1000 | –
12 | COc1cc2nc3c(c4c2c(c1OC)NCC4)CCc1ccccc1-3 | 0 | 3600 | > 1000 | –
13 | COc1cc2nc3c(c4c2c(c1OC)N(C(=O)CN1CCN(C)CC1)CC4)CCc1cc(OCCCN)ccc1-3 | 11.9 | 6.66e+06 | 5.1 | –
14 | COc1cc2nc3c(c4c2c(c1OC)NCC4)CCc1cc(OCCN)ccc1-3 | 12.1 | 2.01e+06 | > 1000 | –
15 | COc1ccc2c(c1)CCc1c-2nc2cc(OC)c(OC)c3c2c1CCN3C(C)=O | – | – | > 1000 | –
16 | COc1cc2nc3c(c4c2c(c1OC)N(C(C)=O)CC4)CCc1ccccc1-3 | – | – | > 1000 | –
17 | COc1ccc2c(c1)CCc1c-2nc2cc(OC)c(OC)c3c2c1CCN3 | 0 | 3000 | > 1000 | –
18 | COc1ccc2c(c1)CCc1c-2nc2cc(OC)c(OC)c3c2c1CCN3C(=O)CN1CCN(C)CC1 | 0.9 | < 50000 | > 1000 | –
19 | COc1cc2nc3c(c4c2c(c1OC)N(C(C)=O)CC4)CCc1cc(OCCCN)ccc1-3 | 3.1 | 6300 | > 1000 | –
20 | COc1cc2nc3c(c4c2c(c1OC)N(C(=O)CN1CCN(C)CC1)CC4)CCc1cc(OCCCN2CCN(C)CC2)ccc1-3 | 0.9 | 3.04e+06 | > 1000 | –
